Source: patent US7342005B2, “Antibiotic compounds” (AstraZeneca UK Limited, priority 1992, dated 2008)
≈ marks a conversion by molar mass, not a printed value. Like-named read-outs stand apart in the source and are kept apart here.

Key:
Assay in all cases: MIC by agar-dilution, Diagnostic Sensitivity Test
Format in all cases: cell-based
Settings in all cases: inoculum 10^4 CFU/spot
[1] = system: Enterobacter cloacae 108
Excerpt: (§1) The following results were obtained for representative compounds on a standard in vitro test system using Diagnostic Sensitivity Test. The antibacterial activity is described in terms of the minimum inhibitory concentration (MIC) determined by the agar-dilution technique with an inoculum size of 10^4 CFU/spot.

[2] = system: S. aureus 147N
Excerpt: as §1

[3] = system: Enterobacter cloacae 029
Excerpt: as §1

[4] = system: E. coli TEM
Excerpt: as §1

Row | MIC ([1]; read-out: MIC) | MIC ([2]; Staphylococcus aureus, read-out: MIC) | MIC ([3]; read-out: MIC) | MIC ([4]; Escherichia coli, read-out: MIC) | SMILES | MIC [1] | MIC [2] | MIC [3] | MIC [4]
1 |  |  |  |  | CC(O)C1C(=O)N2C(C(=O)O)=C(SC3CNC(C(=O)Nc4ccc(Cl)c(C(=O)O)c4)C3)C(C)[C@H]12 (stereo partly drawn) [Example 2, (1R,5S,6S,8R,2′S,4′S)-2-(2-(3-Carboxy-4-chlorophenylcarbamoyl)-pyrrolidin-4-ylthio)-6-(1-hydroxyethyl)-1-methylcarbapenem-3-carboxylic acid] | 1.00 µg/mL (≈ 1.96 µM) | 0.50 µg/mL (≈ 0.98 µM) | 0.03 µg/mL (≈ 0.0588 µM) | 0.02 µg/mL (≈ 0.0392 µM)
2 |  |  |  |  | CC(O)C1C(=O)N2C(C(=O)O)=C(SC3CNC(C(=O)Nc4cccc(C(=O)O)c4)C3)C(C)[C@H]12 (stereo partly drawn) [Example 4, (1R,5S,6S,8R,2′S,4′S)-2-(2-(3-Carboxyphenylcarbamoyl)pyrrolidin-4-ylthio) -6-(1-hydroxyethyl)-1-methylcarbapenem-3-carboxylic acid] | 0.50 µg/mL (≈ 1.05 µM) | 0.25 µg/mL (≈ 0.526 µM) | 0.03 µg/mL (≈ 0.0631 µM) | 0.02 µg/mL (≈ 0.0421 µM)
3 | 32 µg/mL (≈ 57.7 µM) | 2 µg/mL (≈ 3.61 µM) | 0.06 µg/mL (≈ 0.108 µM) | 0.03 µg/mL (≈ 0.0541 µM) | CO/N=C(\C(=O)N[C@@H]1C(=O)N2C(C(=O)O)=C(CSc3nc(=O)c(=O)[nH]n3C)CS[C@H]12)c1csc(N)n1 [ceftriaxone, reference compound] |  |  |  | 
4 |  |  |  |  | C[C@@H](O)[C@H]1C(=O)N2C(C(=O)O)=C(S[C@@H]3CN[C@H](C(=O)Nc4cc(O)cc(C(=O)O)c4)C3)[C@H](C)[C@H]12 [Example 1, (1R,5S,6S,8R,2′S,4′S)-2-(2-(3-Carboxy-5-hydroxyphenylcarbamoyl)-pyrrolidin-4-yl-thio)-6-(1-hydroxyethyl)-1-methylcarbapenem-3-carboxylic acid] | 1.00 µg/mL (≈ 2.03 µM) | 0.25 µg/mL (≈ 0.509 µM) | 0.06 µg/mL (≈ 0.122 µM) | 0.03 µg/mL (≈ 0.061 µM)
5 |  |  |  |  | C[C@@H](O)[C@H]1C(=O)N2C(C(=O)O)=C(S[C@@H]3CN[C@H](C(=O)Nc4ccc(O)c(C(=O)O)c4)C3)[C@H](C)[C@H]12 [Example 10, (1R,5S,6S,8R,2′S,4′S)-2-(2-(3-Carboxy-4-hydroxyphenylcarbamoyl)pyrrolidin-4-ylthio)-6-(1-hydroxyethyl)-1-methylcarbapenem-3-carboxylic acid] | 0.25 µg/mL (≈ 0.509 µM) | 0.13 µg/mL (≈ 0.264 µM) | 0.01 µg/mL (≈ 0.0203 µM) | 0.01 µg/mL (≈ 0.0203 µM)
